Data published in patent US12622910B2, “Inhibitors of Bruton's tyrosine kinase and methods of their use” (Janssen Pharmaceutica NV, priority 2021, dated 2026).

How the values were obtained:
BTK [1] = molecular target: BTK (Homo sapiens, UniProt Q06187); test: Phase 1 study, BTK occupancy in PBMCs; assay type: in vivo; design: measuring free BTK levels in peripheral blood mononuclear cells (PBMCs) and calculating % BTKO; endogenous in cells; host or cells: human PBMCs, lysed after isolation from whole blood; settings: for BTKO at 24 hr, ss, median observed / Calculated Average BTKO, observed / Max BTKO at ss, median observed: Day 10 oral solution; for mean BTKO: all MAD dose groups
Experimental: Pharmacodynamics (BTKO)—In Part 1, venous blood samples (8 mL) were collected predose and at 1, 2, 4, 8, 12, 24, 48, and 72 hours post-dose for measuring free BTK levels in peripheral blood mononuclear cells (PBMCs) and calculating % BTKO. In Part 2, blood samples were taken on day 1 predose and at 2, 4, and 8 hours after dosing; days 2-10 predose and 4 hours post-dose; and at 24, 48, and 72 hours after the last dose and at the follow-up visit.
After PBMCs were isolated from whole blood, they were lysed and prepared for the measurement of BTK occupancy using a custom streptavidin-coated Meso Scale Discovery (MSD) immunoassay. Percent occupancy was calculated as 100%×([Baseline free BTK−Free BTK with treatment]/Baseline Free BTK).

Caco-2 = Caco-2 permeability; assay type: in vitro ADME; settings: Caco-2, 5 μM
Experimental: (§2) In vitro Absorption, Distribution, Metabolism, and Excretion—The compound of Formula (III) was assessed at a concentration of 5 μM in cell permeability models.

Caco-2 permeability = assay type: in vitro ADME; settings: human
Experimental: as §2

[2] = Blood-to-plasma concentration ratio; assay type: in vitro ADME; settings: human, fresh blood
BTK [3] = molecular target: T1, BTK (Rattus norvegicus, UniProt Q5S255); test: Rat in vivo BTK target engagement (occupancy ELISA in blood); design: species or system female Wistar rat; settings: read-out: BTK target occupancy after 8 and 24 hours
T1 construct: Cell lysates were prepared from the blood samples using cell lysis buffer; from tissue; host or cells: blood of female Wistar rats (cell lysates)
Experimental: In Vivo BTK Engagement—BTK receptor occupancy and plasma concentrations of the Compound of Formula (III) increased in a dose-dependent manner following a single oral dose in rat (FIG. 15). Doses of 2 mg/kg or higher consistently achieved sustained target occupancy after 8 and 24 hours (>75% following a 2 mg/kg dose, ≥88% following a 3 mg/kg dose, and ≥99% following a 10 mg/kg dose). Target occupancy was maintained at 24 h even after parent drug plasma levels decreased, indicating persistent BTK occupancy, a hallmark of the covalent mechanism. Considering that 70% to 80% BTK target engagement for 7 to 8 hours in a chronic dosing regimen is associated with anti-inflammatory activity in rodent efficacy models, 75% target engagement at 7.5 hours was identified as the desired level of target engagement.
BTK Occupancy PK/PD Model—Rat in vivo target engagement—Two studies were conducted in which the compound of Formula (III) formulated in 20% HPCD, was administered orally to female Wistar rats. In study 1, compound of Formula (III) was evaluated at oral doses of 0.3, 1, 3 and 10 mg/kg; in study 2, compound of Formula (III) was evaluated at oral doses of 0.1, 0.3, 1, 2 and 3 mg/kg. (n=4/group for both studies). In both experiments, at assigned time points postdose (0.5, 4, 8 and 24 hr), animals were anesthetized and approximately 140 μL of blood was obtained by retro-orbital bleeding into heparinized tubes. These samples were split into two aliquots, with one aliquot used to measure compound levels by liquid chromatography mass spectrophotometry method and the other aliquot to assess BTK occupancy by a target-site occupancy ELISA.
Cell lysates were prepared from the blood samples using cell lysis buffer (BD Pharmingen™, BD Biosciences). Free BTK protein in each sample is tagged by the addition a biotinylated probe (1 μL of a 25 μM working solution per sample, final concentration 250 nM), which is then captured on the surface of a streptavidin coated microtiter plate and detected by ELISA using an antibody specific for BTK (BD Transduction). […]

[4] = system: OCI-LY10 (CD79b/Myd88/A20 mutant); test: Antiproliferative activity, 8 days; assay type: cell-based; settings: Homo sapiens, OCI-Ly10, 192 h, n = 4
Experimental: (§1) In Vitro Activity in DLBCL Cell Lines—NFκB signaling regulates the secretion of multiple cytokines, including interleukin (IL)-6 and IL-10. Secretion of IL-6 and -10 by ABC-DLBCL OCI-LY-10 cells was measured using a MesoScale assay. […] To determine the anti-proliferative activity of the compound of formula (III), several ABC-DLBCL cell lines—OCI-LY-3, OCI-LY-10, TMD8, and HBL-1—were treated for 8 days. […] The OCI-LY-3 cell line, which harbors a CARD11 mutation downstream of BTK in the NF-κB signaling pathway, was completely insensitive to the compound of Formula (III) up to 2 μM. In 2 experiments, OCI-LY-3 cells were insensitive to the compound of Formula (III) at all concentrations up to 10 μM.

[5] = system: TMD8 (CD79b/Myd88/A20 mutant); test: Antiproliferative activity, 8 days; assay type: cell-based; settings: Homo sapiens, TMD8, 192 h, n = 4
Experimental: as §1

[6] = system: HBL1 (CD79b/Myd88/A20 mutant); test: Antiproliferative activity, 8 days; assay type: cell-based; settings: Homo sapiens, HBL1, 192 h, n = 4
Experimental: as §1

T1 sequence (Q5S255 1-660): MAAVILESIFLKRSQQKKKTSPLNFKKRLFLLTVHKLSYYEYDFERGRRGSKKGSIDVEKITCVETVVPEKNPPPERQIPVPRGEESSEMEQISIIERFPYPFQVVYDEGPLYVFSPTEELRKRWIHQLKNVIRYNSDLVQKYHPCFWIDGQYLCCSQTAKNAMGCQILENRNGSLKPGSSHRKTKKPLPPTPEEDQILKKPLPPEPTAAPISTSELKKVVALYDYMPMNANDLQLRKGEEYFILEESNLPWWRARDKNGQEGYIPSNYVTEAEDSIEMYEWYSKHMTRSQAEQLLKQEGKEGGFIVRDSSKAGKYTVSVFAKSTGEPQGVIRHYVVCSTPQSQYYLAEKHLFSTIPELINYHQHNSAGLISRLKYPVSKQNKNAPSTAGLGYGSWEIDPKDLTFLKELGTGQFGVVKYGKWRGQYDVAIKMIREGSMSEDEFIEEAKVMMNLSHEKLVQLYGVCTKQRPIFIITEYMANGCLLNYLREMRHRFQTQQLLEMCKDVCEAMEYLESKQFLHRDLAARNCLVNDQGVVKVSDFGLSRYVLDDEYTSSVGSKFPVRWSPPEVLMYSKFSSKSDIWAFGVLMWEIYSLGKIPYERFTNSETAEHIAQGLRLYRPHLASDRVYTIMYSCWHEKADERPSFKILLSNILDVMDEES
BTK (Homo sapiens, UniProt Q06187), sequence (Q06187 whole entry): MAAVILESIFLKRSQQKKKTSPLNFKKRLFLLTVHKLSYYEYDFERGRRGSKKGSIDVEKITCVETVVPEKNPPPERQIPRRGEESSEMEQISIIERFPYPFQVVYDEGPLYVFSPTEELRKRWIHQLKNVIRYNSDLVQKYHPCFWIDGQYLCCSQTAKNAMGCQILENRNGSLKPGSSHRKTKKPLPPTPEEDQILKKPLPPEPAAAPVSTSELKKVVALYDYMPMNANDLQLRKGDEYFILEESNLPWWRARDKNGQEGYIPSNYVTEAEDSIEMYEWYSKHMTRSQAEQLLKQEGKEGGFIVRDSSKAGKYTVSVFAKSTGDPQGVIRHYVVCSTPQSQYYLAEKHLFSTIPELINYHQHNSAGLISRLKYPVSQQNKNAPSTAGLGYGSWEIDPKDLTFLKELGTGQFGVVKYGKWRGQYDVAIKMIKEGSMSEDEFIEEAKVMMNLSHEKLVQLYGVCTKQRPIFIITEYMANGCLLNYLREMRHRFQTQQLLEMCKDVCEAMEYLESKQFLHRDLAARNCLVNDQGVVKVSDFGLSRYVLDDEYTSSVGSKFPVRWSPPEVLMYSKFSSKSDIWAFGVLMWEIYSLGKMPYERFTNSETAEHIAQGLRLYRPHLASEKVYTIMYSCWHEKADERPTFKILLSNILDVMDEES

In the case of `C=CC(=O)N[C@H]1CCC[C@H]1NC(=O)c1sc2nccc3c2c1NC(=O)N3c1cnc(CC(C)C)cc1C` (atropisomer, axis not shown) [compound of Formula (III), N-((1R,2S)-2-Acrylamidocyclopentyl)-5-(S)-(6-isobutyl-4-methylpyridin-3-yl)-4-oxo-4,5-dihydro-3H-1-thia-3,5,8-triazaacenaphthylene-2-carboxamide], the “BTKO at 24 hr, ss, median observed” value (BTK [1]; 36 mg QD) is reported as 69.5%, the “Calculated Average BTKO, observed” value (BTK [1]; 36 mg QD) is reported as 74.2% and the “Max BTKO at ss, median observed” value (BTK [1]; 36 mg QD) is reported as 78.9%. For the same compound, the “mean % BTKO” value (BTK [1]; 36 mg QD, day 1, 4 hours) was 34%, the “mean % BTKO” value (BTK [1]; 36 mg QD, day 10, 4 hours) was 80% and the “BTKO at 24 hr, ss, median observed” value (BTK [1]; 100 mg QD) was 84.1%. The “Calculated Average BTKO, observed” value (BTK [1]; 100 mg QD) was 89.1%, the “Max BTKO at ss, median observed” value (BTK [1]; 100 mg QD) was 94.1% and the “mean % BTKO” value (BTK [1]; 100 mg QD, day 1, 4 hours) was 61%. The “mean % BTKO” value (BTK [1]; 100 mg QD, day 10, 4 hours) was 91%, the “BTKO at 24 hr, ss, median observed” value (BTK [1]; 200 mg QD) was 78.9% and the “Calculated Average BTKO, observed” value (BTK [1]; 200 mg QD) was 88.8%. The “Max BTKO at ss, median observed” value (BTK [1]; 200 mg QD) was 98.8%, the “mean % BTKO” value (BTK [1]; 200 mg QD, day 1, 4 hours) was 94% and the “mean % BTKO” value (BTK [1]; 200 mg QD, day 10, 4 hours) was 98%. For the same compound, the “mean % BTKO lower, capsule vs solution” value (BTK [1]; 4 hours post-dose) was “≈ 37%”, the “mean % BTKO lower, capsule vs solution” value (BTK [1]; 24 hours post-dose) was “≈ 30%” and the “mean % BTKO at follow-up visit (7-14 days)” value (BTK [1]; Part 1, all treatment groups) was no more than 42%. For the same compound, the “mean % BTKO at follow-up visit (7 to 14 days)” value (BTK [1]; Part 2, all treatment groups) was less than 40%, the “mean BTKO” value (BTK [1]; 24 hours after Day 10 dose) was “above 65%” and the “mean BTKO” value (BTK [1]; 72 hours after Day 10 dose) was greater than 30%. For the same compound, the “mean % BTKO” value (BTK [1]; single 36 mg, females, 4 hours) was 55%, the “mean % BTKO” value (BTK [1]; single 36 mg, males, 4 hours) was 39% and the “peak mean % BTKO” value (BTK [1]; single 100 mg solution, fed, 8 hours post-dose) was 73%. For the same compound, the “mean % BTKO” value (BTK [1]; single 100 mg solution, male fasted, 4 hours post-dose) was 86%, the “mean % BTKO” value (BTK [1]; single 100 mg, females, 4 hours) was 81% and the “mean % BTKO” value (BTK [1]; single 105 mg capsule, 4 hours) was 54%. For the same compound, the “mean % BTKO” value (BTK [1]; single 105 mg capsule, 24 hours) was 53%, the “maximum % BTKO (mean)” value (BTK [1]; single and multiple doses ≥100 mg) was no less than 90% and the “duration of BTKO” value (BTK [1]; single doses ≥100 mg) was “up to 72 hours”. The “% BTKO” value (BTK [1]; single doses ≥100 mg, male fasted, 4 hours) was roughly 100%, the “Papp A to B” value (Caco-2) was 6.69 10^−6 cm/s and the “Papp B to A” value (Caco-2) was 54.9 10^−6 cm/s. For the same compound, the efflux ratio at 5 μM (Caco-2 permeability; Caco-2, read-out: Efflux Ratio (BA/AB)) was 8.2, the Papp A→B at 5 μM (Caco-2 permeability; Caco-2, 5 μM) was 6.69 ×10⁻⁶ cm/s and the Papp B→A at 5 μM (Caco-2 permeability; Caco-2, 5 μM) was 54.9 ×10⁻⁶ cm/s. For the same compound, the blood plasma ratio at 1 μM [2] was 0.67, the receptor occupancy at 2 mg/kg (BTK [3]; single oral 2 mg/kg) was greater than 75% and the receptor occupancy at 3 mg/kg (BTK [3]; single oral 3 mg/kg) was no less than 88%. It also gave a receptor occupancy at 10 mg/kg (BTK [3]; single oral 10 mg/kg) of no less than 99%, an IC50 [4] of 18 nM and an IC50 [5] of 34 nM. The IC50 [6] was 30 nM.
